Data reported in US10695321B2, “Use of glycopyrrolate for treating tachycardia” (Heptares Therapeutics Limited, priority 2011, dated 2020).

Test system: subjects with COPD
Experiment: Phase IIa placebo-controlled crossover dose-ranging study, heart rate (vital signs) after single inhaled dose
Assay type: in vivo, human
Settings: for Adjusted Mean for Average Change in Heart Rate from Test day Baseline: ANCOVA
Experimental: The study was a Phase IIa, multi-centre, randomised, double-blind, placebo-controlled, crossover, dose-ranging study using four dose levels of glycopyrronium bromide in subjects with COPD. A total of 40 subjects were required to complete the study.
Subjects were randomised to receive a single inhaled dose of 20, 125, 250 and 400 μg of glycopyrronium bromide in ascending order, with a placebo dose randomised into the sequence over 5 study visits. Subjects were randomised to receive treatment on Study Day 1 prior to dosing. All doses, including placebo, were administered using the Miat Monohaler.
The Treatment period then consisted of five study visits (separated by a 5-14-day wash-out period), during which subjects were dosed with a single inhaled dose of glycopyrronium bromide using a Miat Monohaler, in ascending order (20, 125, 250 or 400 μg). A placebo was randomly administered (using a Miat Monohaler) at one of the study visits; subsequent visits continued with the next highest dose of glycopyrronium bromide to that which was administered prior to the placebo.
All subjects were scheduled to be dosed between 08:00 and 10:00 am. For individual subjects, dosing was at the same time of day (±30 minutes). At each dosing visit, subjects received a single dose of glycopyrronium bromide or placebo administered via Miat Monohaler. Each different dose (20, 125, 250 or 400 μg) was contained in one capsule. An appropriate number of Miat Monohalers to conduct the study was also supplied to the site. A new Miat Monohaler was used to administer each dose at each visit.
copyrronium bromide was presented in size 3, white opaque, hard, gelatin capsules packaged in aluminium pouches. The capsules were presented in four dose strengths containing 20, 125, 250, or 400 μg glycopyrronium bromide. In addition to glycopyrronium bromide, excipient present in the capsule formulation consisted of the PowderHale^TM formulation of lactose and magnesium stearate.
All vital signs were measured on each study day, including heart rate (with the subject semi-supine for 5 minutes prior to measurement); blood pressure; respiratory rate and temperature were measured at each visit and before receiving study medication (pre-treatment), if applicable. Blood pressure and heart rate were also measured at 45, 90 minutes and 5, 10, 20 and 30 hours post-treatment on study days.
The statistical analyses were to be reported using summary tables and data listings. Statistical tests for the evaluation were to be performed at the 0.05 significance level using a two-sided test.
All analyses and tabulations were to be performed using SASS Version 6.12 on a PC platform. Continuous variables were to be summarised with sample size (n), mean, standard deviation (SD), minimum, median, and maximum. […] The mean was to have one extra decimal place and the standard deviation was to have two extra decimal places. Categorical variables were to be summarised with number and percentage of subjects.

[1] = 250 μg single inhaled dose, 90 mins post-dose
[2] = 250 μg single inhaled dose, 5 hrs post-dose
[3] = 250 μg single inhaled dose, 10 hrs post-dose
[4] = 250 μg single inhaled dose, 20 hrs post-dose
[5] = 250 μg single inhaled dose, 30 hrs post-dose
[6] = 250 μg single inhaled dose, pre-dose to 45 mins post-dose
[7] = 250 μg single inhaled dose, pre-dose to 90 mins post-dose
[8] = 250 μg single inhaled dose, pre-dose to 5 hours post-dose
[9] = 250 μg single inhaled dose, pre-dose to 10 hours post-dose
[10] = 250 μg single inhaled dose, pre-dose to 20 hours post-dose
[11] = 250 μg single inhaled dose, pre-dose to 30 hours post-dose
[12] = 400 μg single inhaled dose, 45 mins post-dose
[13] = 400 μg single inhaled dose, 90 mins post-dose
[14] = 400 μg single inhaled dose, 5 hrs post-dose
[15] = 400 μg single inhaled dose, 10 hrs post-dose
[16] = 400 μg single inhaled dose, 20 hrs post-dose
[17] = 400 μg single inhaled dose, 30 hrs post-dose
[18] = 400 μg single inhaled dose, pre-dose to 45 mins post-dose
[19] = 400 μg single inhaled dose, pre-dose to 90 mins post-dose
[20] = 400 μg single inhaled dose, pre-dose to 10 hours post-dose
[21] = 400 μg single inhaled dose, pre-dose to 30 hours post-dose

C[N+]1(C)CCC(OC(=O)C(O)(c2ccccc2)C2CCCC2)C1 (stereo not drawn) [glycopyrronium bromide]
Heart Rate Median (250 μg single inhaled dose, 45 mins post-dose): 64.0 bpm
Heart Rate Mean [1]: 68.2 bpm
Heart Rate Median [1]: 69.0 bpm
Heart Rate Mean [2]: 68.4 bpm
Heart Rate Median [2]: 68.5 bpm
Heart Rate Mean [3]: 66.3 bpm
Heart Rate Median [3]: 65.0 bpm
Heart Rate Mean [4]: 66.6 bpm
Heart Rate Median [4]: 65.0 bpm
Heart Rate Mean [5]: 70.7 bpm
Heart Rate Median [5]: 71.5 bpm
Heart Rate Change from Test day Baseline, Mean [6]: −4.6 bpm
Heart Rate Change from Test day Baseline, Median [6]: −4.5 bpm
Heart Rate Change from Test day Baseline, Mean [7]: −1.7 bpm
Heart Rate Change from Test day Baseline, Median [7]: −1.0 bpm
Heart Rate Change from Test day Baseline, Mean [8]: −1.4 bpm
Heart Rate Change from Test day Baseline, Median [8]: 0.0 bpm
Heart Rate Change from Test day Baseline, Mean [9]: −3.6 bpm
Heart Rate Change from Test day Baseline, Median [9]: −4.0 bpm
Heart Rate Change from Test day Baseline, Mean [10]: −3.4 bpm
Heart Rate Change from Test day Baseline, Median [10]: −4.0 bpm
Heart Rate Change from Test day Baseline, Mean [11]: 1.0 bpm
Heart Rate Change from Test day Baseline, Median [11]: 2.5 bpm
Adjusted Mean for Average Change in Heart Rate from Test day Baseline (250 μg, to 45 mins post-dose): −3.693 bpm
Dose v Placebo Difference, adjusted mean change in Heart Rate from Test day Baseline (250 μg, to 45 mins post-dose, p-value 0.324): −1.364 bpm
Adjusted Mean for Average Change in Heart Rate from Test day Baseline (250 μg, to 90 mins post-dose): −0.763 bpm
Dose v Placebo Difference, adjusted mean change in Heart Rate from Test day Baseline (250 μg, to 90 mins post-dose, p-value 0.203): −2.035 bpm
Adjusted Mean for Average Change in Heart Rate from Test day Baseline (250 μg, to 5 hours post-dose): −0.586 bpm
Dose v Placebo Difference, adjusted mean change in Heart Rate from Test day Baseline (250 μg, to 5 hours post-dose, p-value 0.072): −2.633 bpm
Adjusted Mean for Average Change in Heart Rate from Test day Baseline (250 μg, to 10 hours post-dose): −4.657 bpm
Dose v Placebo Difference, adjusted mean change in Heart Rate from Test day Baseline (250 μg, to 10 hours post-dose, p-value 0.078): −2.832 bpm
Adjusted Mean for Average Change in Heart Rate from Test day Baseline (250 μg, to 20 hours post-dose): −1.858 bpm
Dose v Placebo Difference, adjusted mean change in Heart Rate from Test day Baseline (250 μg, to 20 hours post-dose, p-value 0.773): −0.390 bpm
Adjusted Mean for Average Change in Heart Rate from Test day Baseline (250 μg, to 30 hours post-dose): 1.436 bpm
Dose v Placebo Difference, adjusted mean change in Heart Rate from Test day Baseline (250 μg, to 30 hours post-dose, p-value 0.581): 0.817 bpm
Statistical significance (p) of heart rate change relative to placebo (400 μg dose, 45 minute to 10 hour timepoints inclusive): < 0.05
Heart Rate Mean [12]: 65.4 bpm
Heart Rate Median [12]: 65.0 bpm
Heart Rate Mean [13]: 67.1 bpm
Heart Rate Median [13]: 67.5 bpm
Heart Rate Mean [14]: 69.7 bpm
Heart Rate Median [14]: 69.0 bpm
Heart Rate Mean [15]: 65.7 bpm
Heart Rate Median [15]: 65.5 bpm
Heart Rate Mean [16]: 66.7 bpm
Heart Rate Median [16]: 66.0 bpm
Heart Rate Mean [17]: 70.9 bpm
Heart Rate Median [17]: 70.0 bpm
Heart Rate Change from Test day Baseline, Mean [18]: −7.4 bpm
Heart Rate Change from Test day Baseline, Median [18]: −6.5 bpm
Heart Rate Change from Test day Baseline, Mean [19]: −5.7 bpm
Heart Rate Change from Test day Baseline, Median [19]: −4.5 bpm
Heart Rate Change from Test day Baseline, Mean (400 μg single inhaled dose, pre-dose to 5 hours post-dose): −3.1 bpm
Heart Rate Change from Test day Baseline, Mean [20]: −6.4 bpm
Heart Rate Change from Test day Baseline, Median [20]: −5.5 bpm
Heart Rate Change from Test day Baseline, Mean (400 μg single inhaled dose, pre-dose to 20 hours post-dose): −5.6 bpm
Heart Rate Change from Test day Baseline, Mean [21]: −1.4 bpm
Heart Rate Change from Test day Baseline, Median [21]: 0.0 bpm
Adjusted Mean for Average Change in Heart Rate from Test day Baseline (400 μg, to 45 mins post-dose): −7.052 bpm
Dose v Placebo Difference, adjusted mean change in Heart Rate from Test day Baseline (400 μg, to 45 mins post-dose, p-value 0.005): −4.723 bpm
Adjusted Mean for Average Change in Heart Rate from Test day Baseline (400 μg, to 90 mins post-dose): −4.315 bpm
Dose v Placebo Difference, adjusted mean change in Heart Rate from Test day Baseline (400 μg, to 90 mins post-dose, p-value 0.004): −5.587 bpm
Adjusted Mean for Average Change in Heart Rate from Test day Baseline (400 μg, to 5 hours post-dose): −3.455 bpm
Dose v Placebo Difference, adjusted mean change in Heart Rate from Test day Baseline (400 μg, to 5 hours post-dose, p-value 0.002): −5.502 bpm
Adjusted Mean for Average Change in Heart Rate from Test day Baseline (400 μg, to 10 hours post-dose): −6.919 bpm
Dose v Placebo Difference, adjusted mean change in Heart Rate from Test day Baseline (400 μg, to 10 hours post-dose, p-value 0.008): −5.095 bpm
Adjusted Mean for Average Change in Heart Rate from Test day Baseline (400 μg, to 20 hours post-dose): −2.371 bpm
Dose v Placebo Difference, adjusted mean change in Heart Rate from Test day Baseline (400 μg, to 20 hours post-dose, p-value 0.583): −0.903 bpm
Adjusted Mean for Average Change in Heart Rate from Test day Baseline (400 μg, to 30 hours post-dose): 0.475 bpm
Dose v Placebo Difference, adjusted mean change in Heart Rate from Test day Baseline (400 μg, to 30 hours post-dose, p-value 0.935): −0.143 bpm
Mean heart rate from Test Day Baseline, dose relation (20-400 μg inhaled, up to 5 hours post-dose): dose dependent decrease
Subsequent tachycardic effect (any of the inhaled doses, up to 30 hours): not evident
